Assay [1] has as its system immunosuppressant activity. Nature of the assay: Immunosuppressant activity (general statement). It is filed as in vivo. The conditions noted are these: result in words.
In the next assay the test system is T. rubrum. Nature of the assay: Agar dilution antifungal assay, Trichophyton rubrum. It is filed as cell-based, Trichophyton rubrum (ATCC No. 10218 and 14001). The conditions noted are these: for MIC: Trichophyton rubrum, read-out: Parts Per Million Inhibitions, T. rubrum. As for the experimental part: (§1) Various compounds of this invention display antifungal and anti-yeast activity.
(§2) In Table IX below are listed the antifungal activity of a number of compounds encompassed in the present invention. These were determined by the agar dilution method as described in Chapters 2 and 3 of Methods in Microbiology, Vol. 7B, edited by J. R. Norris and D. W. Ribbons, Academic Press, New York, 1972.

For a further assay, the system named is Rat Paw Edema. Nature of the assay: Rat paw edema assay, local administration. It is filed as in vivo. The conditions noted are these: injected directly into paw, carrageenan. How it is done:
The anti-inflammatory activity of representative compounds of this invention was determined by the rat paw edema assay both by local administration (Table XI below) and by oral dosing (Table XII below). For the oral dosing, the procedure of C. A. Winter, E. A. Risley and G. W. Nuss, Proc. Soc. Exp. Biol. Med. 111, 544 (1962) was employed with measurement taken four hours after the drug was administered. The local administration tests were carried out similarly except the irritant (carrageenan) and the test compound were injected simultaneously at time zero.
Tables XI and XII report the anti-inflammatory activity of the compounds tested as % difference in the edema or swelling as compared with the control. These Tables also give the response in many instances of more than one dose level of the same drug.

The subject of the next assay is T. ajelloi. Nature of the assay: Agar dilution antifungal assay, Trichophyton ajelloi. It is filed as cell-based. How it is done:
as §1, §2
On the technique in general: Agar dilution tests growth on a series of plates holding different concentrations.

Another assay concerns T. mentagrophytes. Nature of the assay: Agar dilution antifungal assay, Trichophyton mentagrophytes. It is filed as cell-based, Trichophyton mentagrophytes (ATCC No. 8757 and 9129). How it is done: as §1, §2

SMILES strings stand for the structures. Values after ≈ are worked out from the molar mass of the structure shown.

In the case of `c1ccc2c(c1)ncc1nccn12` [Compound 109, imidazo[1,2-a]quinoxaline], the immunosuppressant activity entry in assay [1] is reported as “lacks immunosuppressant activity”.

Take `CCCCc1nc2ccccc2n2ccnc12` [Compound 113]: in the assay on T. rubrum, the MIC was determined as 16 µg/mL (≈ 71 µM).

With `CCCCCc1nc2ccccc2n2ccnc12` [Compound 114], in the assay with Rat Paw Edema, the “% Difference from Control (edema), local administration, 10 μg” value is -30.0%.

For `CCCCCCCCc1nc2ccccc2n2ccnc12` [Compound 117], the MIC was determined as 16 µg/mL (≈ 56.9 µM) in the assay on T. ajelloi (Arthroderma uncinatum, read-out: Parts Per Million Inhibitions, T. ajelloi); 16 µg/mL (≈ 56.9 µM) with T. mentagrophytes (Trichophyton mentagrophytes, read-out: Parts Per Million Inhibitions, T. mentagrophytes); 8 µg/mL (≈ 28.4 µM) in the assay on T. rubrum.

`c1ccc(-c2nc3ccccc3n3ccnc23)cc1` [Compound 131, 4-phenylimidazo[1,2-a]quinoxaline]: the immunosuppressant activity entry in assay [1] is listed as “only minor activity”.

For `Clc1cccc(Nc2nc3ccccc3n3ccnc23)c1` [Compound 179], in the assay with T. ajelloi, the “Parts Per Million Inhibitions, T. ajelloi” value was found to be 100 Parts Per Million. The “Parts Per Million Inhibitions, T. mentagrophytes” value in the assay on T. mentagrophytes was 100 Parts Per Million. Besides, the “Parts Per Million Inhibitions, T. rubrum” value with T. rubrum is listed as 100 Parts Per Million.

Values taken from patent publication US4200750A, “4-Substituted imidazo [1,2-a]quinoxalines” (Westwood Pharmaceuticals Inc., priority 1977, dated 1980).
